Columns and labels:
Assay type in all cases: in vivo
[1] = test system: broadleaf weeds and sedges; assay: small plot test in Arkansas, weedy rice plot (Example 7); conditions: 12 days after application
Excerpt: (§1) The chemical rates in pounds/acre were:
(§2) The following observations were made 12 days after application.

[2] = test system: barnyard grass and Sprangletop (two grass species); assay: as above; conditions: cyhalofop alone, high labeled rate 0.279 pounds/acre; 12 days after application
Excerpt: as §1, §2

[3] = test system: broadleaf weeds and sedges; assay: small plot test in Arkansas, weedy rice plot (Example 1); conditions: Clincher SF alone, 15 fluid ounces/acre (0.279 pounds ai/acre)
Excerpt: (§3) Note that the label recommended rate for Clincher® (cyhalofop) SF for controlling grasses in the 2-3 leaf stage is 13.5 fluid ounces/acre (0.251 pounds cyhalofop/acre).

[4] = test system: grasses; assay: as above; conditions: Clincher SF alone, 15 fluid ounces/acre (0.279 pounds ai/acre); 2-3 leaf barnyard grass
Excerpt: as §3

[5] = test system: Sprangletop; assay: small plot test in Arkansas, weedy rice plot (Example 7); conditions: propanil applied alone, all rates (5, 4, 3 pounds/acre); 12 days after application; 1 to 6 inch Sprangletop
Excerpt: as §1, §2

[6] = test system: Barnyard grass; assay: commercial field application by air in Arkansas, half a weedy rice field (Example 8); conditions: only propanil (Super Wham) at 4 pounds; 7 days after application

SMILES	controlling broadleaf weeds and sedges ([1]; cyhalofop alone, high labeled rate 0.279 pounds/acre)	grass control [2]	control of the broadleaf weeds and sedges present at the time of application [3] [%]	control of the grasses [4]	Sprangletop control [5]	broadleaf and sedge control ([1]; all rates of propanil applied (5, 4, 3 pounds/acre))	barnyard grass control [6]
C[C@@H](Oc1ccc(Oc2ccc(C#N)cc2F)cc1)C(=O)O [cyhalofop]	weakness in controlling broadleaf weeds and sedges	excellent grass control	0	controlled the grasses			
CCC(=O)Nc1ccc(Cl)c(Cl)c1 [propanil]					lack of Sprangletop control	excellent broadleaf and sedge control	poor barnyard grass control

Source: patent US8211831B2, “Method to use a synergistic composition” (Riceco, LLC, priority 2005, dated 2012)
